Data: patent US20100184678A1, “USE OF A PEPTIDE AS A THERAPEUTIC AGENT” (priority 2007, published 2010)
Where no end group is shown, it is not given here.

Key:
HIV-1IIIB = experiment: HIV-1 antiviral assay in CEM-SS cells (MTS readout); conditions: HIV-1IIIB in CEM-SS cells
[1] = tested on: hepatitis B virus (HBV) ayw strain; experiment: HBV assay in HepG2-2.2.15 cells (secreted HBV DNA, TaqMan PCR); format: cell-based; conditions: 10 micrograms per ml, HepG2-2.2.15, six days
HCMV strain AD169 = experiment: HCMV plaque formation assay in MRC-5 cells; format: cell-based; conditions: for inhibition of HCMV plaque formation as compared to the virus control experiment: 10 micrograms per ml, MRC-5 cells, 7-10 days
Excerpt: Ganciclovir was used as positive control.

A549 cells [2] = experiment: Apoptosis induction assay (Annexin-5); format: cell-based, human; conditions: 10 micrograms per ml; 24 hours
Procedure: Human A549 cells (carcinomic human alveolar basal epithelial cells) were utilized in the experiments employing the Annexin-5 apoptosis assay. […] Test peptides—10 micrograms per ml—were exposed for 24 hours to the A549 cells before they were analyzed for signs of apoptosis.

A549 cells [3] = experiment: Apoptosis prevention assay (C2 ceramide, Annexin-5); format: cell-based, human; conditions: 10 micrograms per ml, 30 min pretreatment, then C2 ceramide
Procedure: Human A549 cells (carcinomic human alveolar basal epithelial cells) were utilized in the experiments employing the Annexin-5 apoptosis assay. […] A549 cells were pretreated for 30 min with test peptides—10 micrograms per ml—followed by the exposure to C2 ceramide.

murine spleen cells = experiment: Th1/Th2 cytokine profiling assay (Ovalbumin-restimulated spleen cells); format: cell-based, Balb/c mice; conditions: 10 micrograms per ml, 72 hours; for production of IFN-gamma (decreased by %) / production of IL-4 (decreased by %) / production of IL-5 (decreased by %): number = decrease; for production of TNF-alpha (induced by %): number = increase
[4] = tested on: Primary Human endothelial cells (HUVEC); experiment: Endothelial cell migration assay; format: cell-based; conditions: 10 micrograms per ml; 22 hours
Procedure: Thereafter, designated concentration of testing peptides—10 micrograms per ml—was added in duplicate wells.

HUVEC = experiment: Endothelial tube formation assay; format: cell-based, human; conditions: 10 micrograms per ml; 20 hours
Excerpt: Positive control was vehicle only. […] Raw data were expressed as average tubule lenghs in pixels±standard deviation.

| Compound | antiviral activity of positive control compounds (HIV-1IIIB) | inhibition of HBV replication as compared to the virus control infection [1] | inhibition of HCMV plaque formation as compared to the virus control experiment (HCMV strain AD169) | induction of apoptosis on human lung cells (A549 cells [2]) | induction of apoptosis on ceramide-induced apoptosis (A549 cells [3]; increase of apoptosis) | production of IL-2 (change) (murine spleen cells) | production of IFN-gamma (decreased by %) (murine spleen cells) | production of IL-4 (decreased by %) (murine spleen cells) | production of IL-5 (decreased by %) (murine spleen cells) | production of TNF-alpha (induced by %) (murine spleen cells) | inhibition of the migration of human endothelial cells [4] | inhibition of the tube formation of human endothelial cells (HUVEC) | antiviral activity of positive control compound (HCMV strain AD169; HCMV in MRC-5 cells) | prevention of apoptosis on ceramide-induced apoptosis (A549 cells [3]; protection) |
| --- | --- | --- | --- | --- | --- | --- | --- | --- | --- | --- | --- | --- | --- | --- |
| Cc1cn([C@H]2C[C@H](N=[N+]=[N-])[C@@H](CO)O2)c(=O)[nH]c1=O [AZT] | expected levels of antiviral activity |  |  |  |  |  |  |  |  |  |  |  |  |  |
| CC(C)(C)NC(=O)[C@@H]1CN(Cc2cccnc2)CCN1C[C@@H](O)C[C@@H](Cc1ccccc1)C(=O)N[C@H]1c2ccccc2C[C@H]1O [indinavir] | expected levels of antiviral activity |  |  |  |  |  |  |  |  |  |  |  |  |  |
| His-Pro-Leu-Gln-Lys-Thr-Tyr-OH (HPLQKTY-OH) [Peptide 1] |  | 25.3% | 0.3% | did not show any significant induction | 9.7% | did not significantly change | did not significantly change | 30.9% | did not significantly change | 31.3% | 4% | 6% |  |  |
| Nc1nc(O)c2ncn(COC(CO)CO)c2n1 [Ganciclovir, reference compound] |  |  |  |  |  |  |  |  |  |  |  |  | expected levels of antiviral activity |  |
| His-Ser-Asp-Gly-Ile-Phe-Thr-Asp-Ser-Tyr-Ser-Arg-Tyr-Arg-Lys-Gln-Met-Ala-Val-Lys-Lys-Tyr-Leu-Ala-Ala-Val-Leu-NH2 (HSDGIFTDSYSRYRKQMAVKKYLAAVL-NH2) [Peptide 2] |  | 39.1% | did not inhibit | 3.6% |  | did not significantly change | 62.9% | did not significantly change | 43.3% | did not significantly change | did not inhibit | did not inhibit |  | 13.7% |
